Measurements as given in PubChem BioAssay (NCI).
Values joined by “and” are separate entries in the source; they are usually repeats but may differ in a detail not shown here. Equal values may be shown once.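 Assay format: 96-well plates, 48-hour exposure. Abbreviation: GI50, concentration required for 50% inhibition of growth. TGI denotes the concentration required for complete inhibition of growth.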

How the values were obtained:
Test in all cases: NCI tumour cell line growth inhibition, 48 h
HOP-92 NSCLC = tested on: HOP-92 NSCLC
MDA-MB-231 breast = tested on: MDA-MB-231 breast
HCT-15 colon = tested on: HCT-15 colon
OVCAR-4 ovarian = tested on: OVCAR-4 ovarian
786-0 renal = tested on: 786-0 renal
SK-MEL-2 melanoma = tested on: SK-MEL-2 melanoma
NCI-H460 lung = tested on: NCI-H460 lung
NCI-H522 lung = tested on: NCI-H522 lung
KM12 colon = tested on: KM12 colon
SN12C renal = tested on: SN12C renal

Compound | GI50 (HOP-92 NSCLC) | TGI (HOP-92 NSCLC) | TGI (MDA-MB-231 breast) | TGI (HCT-15 colon) | TGI (OVCAR-4 ovarian) | TGI (786-0 renal) | TGI (SK-MEL-2 melanoma) | TGI (NCI-H460 lung) | TGI (NCI-H522 lung) [µM] | TGI (KM12 colon) | TGI (SN12C renal) | GI50 (MDA-MB-231 breast) | GI50 (HCT-15 colon) | GI50 (OVCAR-4 ovarian) | GI50 (786-0 renal) | GI50 (SK-MEL-2 melanoma) | GI50 (NCI-H460 lung) | GI50 (NCI-H522 lung) | GI50 (KM12 colon) | GI50 (SN12C renal)
CC(C(=O)O)c1ccc(-c2ccccc2)c(F)c1 (configuration not stated) | 47.6 µM | > 100 µM | > 100 µM | > 100 µM | > 100 µM | > 100 µM | > 100 µM | > 100 µM | > 100 | > 100 µM | > 100 µM | – | – | – | – | – | – | – | – | –
Clc1ccc2ns[s+]c2c1 | – | > 100 µM | > 100 µM | > 100 µM | > 100 µM | > 100 µM | > 82.5 µM | > 100 µM | > 100 | > 100 µM | > 100 µM | – | – | – | – | – | – | – | – | –
CCCCCCNC(=O)n1cc(F)c(=O)[nH]c1=O | 14.8 µM | 50 µM | 24.5 µM | 28.7 µM | 39.1 µM | 23.4 µM | 35.2 µM | 17.7 µM | 25 | > 100 µM | 24.3 µM | 10.2 µM | 4.26 µM | 14 µM | 10.6 µM | 12 µM | 0.564 µM | 10.7 µM | 4.43 µM | 4.29 µM
Oc1c(Cl)cc(Cl)cc1Sc1cc(Cl)cc(Cl)c1O | 1.65 µM | 4.47 µM and 4.65 µM | 6.07 µM and 4.34 µM | 14.8 µM and 12.5 µM | 14.3 µM and 11.7 µM | 10.4 µM and 7.85 µM | 5.4 µM and 2.91 µM | 9.91 µM and 8.1 µM | 7.03 | 10.7 µM and 10.5 µM | 13 µM and 11.4 µM | 2.59 µM and 1.86 µM | 3.44 µM and 3.06 µM | 3.97 µM and 3.2 µM | 3.22 µM and 2.83 µM | 2.62 µM and 1.07 µM | 2.98 µM and 2.56 µM | 2.49 µM | 3.54 µM and 2.93 µM | 3.13 µM and 3.14 µM
Cc1nn(CNc2ccccc2C(F)(F)F)c(=S)n1/N=C/c1ccc(F)cc1 | 34.8 µM | > 100 µM | > 100 µM | > 100 µM | 70.6 µM | > 100 µM | > 100 µM | > 100 µM | > 100 | > 100 µM | – | 25.9 µM | 53.7 µM | 23.3 µM | > 100 µM | > 100 µM | > 100 µM | > 100 µM | > 100 µM | –
COC(=O)[C@H]1[C@H]2C[C@@H]3c4[nH]c5cc(OC)ccc5c4CCN3C[C@H]2C[C@@H](OC(=O)/C=C/c2cc(OC)c(OC)c(OC)c2)[C@@H]1OC | 2.85 µM | 17.4 µM | 41.8 µM | > 100 µM | 11.2 µM | 26.3 µM | 19.8 µM | > 100 µM | 27 | 28.5 µM | > 100 µM | 10.6 µM | 4.32 µM | 3.39 µM | 9.86 µM | 5.73 µM | 4.82 µM | 10.4 µM | 4.44 µM | 4.56 µM
CC(C)(C)n1cc(-c2ccnc(NCCCNS(=O)(=O)c3ccc(Br)cc3)c2)c(-c2cccc(O)c2)n1 | 1.56 µM | 3.43 µM | 3.39 µM | 3.17 µM | 3.91 µM | 3.16 µM | 4.31 µM | 3.99 µM | 4.55 | 4.37 µM | 3.01 µM | 1.74 µM | 1.48 µM | 1.91 µM | 1.66 µM | 2.13 µM | 1.99 µM | 2.13 µM | 2.11 µM | 1.61 µM
C/C(=C(/c1ccc(O)cc1)c1ccc(Cl)cc1)c1ccccc1 | 0.448 µM | 1.09 µM | 1.86 µM | 2.06 µM | 2.61 µM | 1.56 µM | 1.81 µM | 0.945 µM | 2.8 | 1.22 µM | 0.977 µM | 0.653 µM | 0.639 µM | 0.66 µM | 0.558 µM | 0.659 µM | 0.471 µM | 0.739 µM | 0.543 µM | 0.466 µM
CC12CC=CCC1CCC1C2CCC2(C)C(c3ccc(=O)oc3)CCC12O (configuration not stated) | 0.148 µM | 0.756 µM | 1.64 µM | 0.458 µM | 0.641 µM | 0.209 µM | 0.741 µM | 0.128 µM | 0.273 | 1.55 µM | 0.47 µM | 0.336 µM | 0.105 µM | 0.197 µM | 0.0387 µM | 0.24 µM | 0.0338 µM | 0.0383 µM | 0.315 µM | 0.0378 µM
CSc1nsc(S/C=C\C(=O)c2ccc(C)cc2)n1 | 17.3 µM | 35.1 µM | 27.5 µM | 25.3 µM | > 58.9 µM | 28.9 µM | > 100 µM | > 73.5 µM | > 59.5 | > 64.7 µM | 35.9 µM | 11.3 µM | 11.9 µM | 20.8 µM | 14.8 µM | 35.7 µM | 26.7 µM | 12.2 µM | 28 µM | 18.3 µM
CC1(C)C(=O)C=CC2(C)C1CC(O)C1(C)C2CCC2(C)C(c3ccoc3)OC(=O)C3OC321 (configuration not stated) | – | 38.5 µM | 36.7 µM | 23.6 µM | 38.4 µM | 28.3 µM | 35.1 µM | 27.6 µM | 27.1 | 28.7 µM | 37.4 µM | – | – | – | – | – | – | – | – | –
Cc1ccc(/C=C2/NC(=S)SC2=O)cc1 | – | > 100 µM | 83.4 µM | 85.6 µM | > 100 µM | > 100 µM | > 100 µM | 50.4 µM | – | > 100 µM | > 100 µM | – | – | – | – | – | – | – | – | –
COc1cc2ncnc3c2cc1OCCCCCN(C)Cc1ccc(Br)cc1N3 | 3.61 µM and 1 µM | 71.5 µM and > 10 µM | 50.9 µM and > 10 µM | > 100 µM | 43.1 µM and > 10 µM | > 100 µM | > 100 µM | > 100 µM | – | > 100 µM | > 100 µM | 10.6 µM and 7.51 µM | 0.885 µM and 0.975 µM | 2.57 µM and 1.34 µM | 37.4 µM and 5.07 µM | 6.37 µM and 2.2 µM | 3.44 µM and 1.27 µM | 0.851 µM and 0.225 µM | 13.2 µM and > 10 µM | 5.45 µM and 1.32 µM
